Measurements from patent publication US20070155827A1, “USE OF BENZO-FUSED HETEROCYCLE SULFAMIDE DERIVATIVES FOR THE TREATMENT OF DEPRESSION” (priority 2005, published 2007).
“Also recorded” adds a separate entry of the source.

Legend:
submissive rats = test: Dominant-Submissive Relations (DSR) assay: Reduction of Submissive Behavior Model (RSBM) of depression; type: in vivo, Male Sprague Dawley rats
Method: The DSR assay is divided into two models: Reduction of Dominant Behavior Model (RDBM) of mania and Reduction of Submissive Behavior Model (RSBM) of depression. The RDBM, wherein the dominant animals are treated with test compound, is predictive of the ability of the test compound to treat mania. The RSBM, wherein the submissive animals are treated with test compound, is predictive of the ability of the test compound to treat depression.
Male Sprague Dawley rats (140 to 160 g) from Charles River Laboratories Wilmington, Mass. were used in this assay. Shipments of rats were received at two-week intervals. Each shipment went through five-day quarantine, one-week acclimation period, and one-week selection process, followed by five-weeks of drug or vehicle treatment to those pairs selected.
Rats were housed four per cage. Access to food was restricted to one hour per day after testing on Monday through Thursday. After testing on Friday, rats had free access to food until being fasted again on Sunday. At no time were the rats deprived of water. The food deprivation periods used had little effect on weight gain as the average weight of rats was about 300 g at the end of the study. At the conclusion of experiment rats were sacrificed by decapitation, the trunk blood and brains were collected for in vitro experiments and drug concentration measurements.
The basic testing apparatus consisted of two chambers connected with a tunnel only large enough to allow one rat to pass through at a time. On the floor, at the mid-point of the tunnel was a container of sweetened milk. This basic apparatus was replicated, so that a total of four pairs of rats can be video tracked simultaneously. The camera can distinguish rats marked by different colors. Thus, the rats' heads were colored for the purpose of video tracking, red in one cage and yellow in the other cage. Only one animal at a time can have comfortable access to the feeder, but both animals can drink milk during the five-minute daily session. During the five-minute daily sessions, time spent in the feeder zone by each rat was recorded by the video tracking software and saved into a text file.
The test began with a random assignment of rats into pairs. Each member of a pair was placed in an opposite chamber of the testing apparatus. The time spent in the feeder zone by each animal was recorded. During the first week (five days) of testing the animals habituate to the new environment. Dominance was assigned to the animal with the highest score during the second week of testing if three criteria were achieved. First, there must have been a significant difference (two-tailed t-test, P<0.05) between the average daily drinking scores of both animals. Second, the dominant animal score must have been at least 25% greater than the submissive animal's score. Finally, there must have been no “reversals” during the pair selection week where the putative submissive rat out-scored its dominant partner on isolated occasions. Ideally there were minimal reversals during the acclimation week as well. About twenty-five to thirty-three percent of the initial animal pairs achieved these criteria and only these pairs were continued in the study.
Significant differences between time spent on the feeder by dominant and submissive rats were determined by ANOVA using GraphPad Prism software (GraphPad Software, Inc. San Diego, Calif.) followed by a two-tailed t-test (P<0.05). Comparisons were made between treatment groups using normalized dominance level values in paired animals. The dominance level is a value that measures social relation between paired subjects. Dominance level (DL)=FTD−FTS where FTD is the feeder time of dominant rats and FTS is the feeder time of submissive rats. The normalization was conducted according to the formula: Dominance Level (week n in %)=(Dominance Level (week n))/(Dominance Level (week 2) […]

Male Wistar rats = test: Chronic Mild Stress Model (Chronic), sucrose consumption; type: in vivo
Excerpt: In the chronic mild stress (CMS) model rats subjected to a variety of mild stressors for a prolonged period of time show, among other behavioural, biochemical and physiological impairments, a substantial decrease in their responsiveness to rewarding stimuli. This deficit is usually monitored by a decrease in the consumption of the 1% sucrose solution, but can also be seen in other tests, such as place preference conditioning or intracranial self-stimulation. Since the subsensitivity to reward appears to reflect anhedonia (inability to experience pleasure), which is a core symptom of major depressive disorders, the CMS procedure may serve as a suitable research tool in studies into the mechanisms of antidepressant action.
Male Wistar rats were brought into the laboratory two months before the start of the experiment. Except as described below, the animals were singly housed with food and water freely available, and were maintained on a 12-h light/dark and in a constant temperature (22±2° C.) and humidity (50±5%) conditions.
The animals were first trained to consume a 1% sucrose solution; training consisted of eight 1 h baseline tests in which sucrose was presented, in the home cage, following 14 h food and water deprivation; the sucrose intake was measured by weighing pre-weighed bottles containing the sucrose solution, at the end of the test. Subsequently, sucrose consumption was monitored, under similar conditions, at weekly intervals throughout the whole experiment.
On the basis of their sucrose intakes in the final baseline test, the animals were divided into two matched groups. One group of animals was subjected to the chronic mild stress procedure for a period of 7 consecutive weeks. Each week of stress regime consisted of: two periods of food or water deprivation, two periods of 45 degree cage tilt, two periods of intermittent illumination (lights on and off every 2 h), two periods of soiled cage (250 ml water in sawdust bedding), one period of paired housing, two periods of low intensity stroboscopic illumination (150 flashes/min), and three periods of no stress. All stressors were 10-14 h of duration and were applied individually and continuously, day and night. Control animals were housed in separate rooms and had no contact with the stressed animals. They were deprived of food and water for the 14 h preceding each sucrose test, but otherwise food and water were freely available in the home cage.
The drugs were administered at approx. 10.00 and the weekly sucrose tests were carried out 24 h following the last drug injections. […]
All results obtained in this study were analyzed by multiple analyses of variance with three between-subjects factors (stress/control, drug treatments and successive sucrose tests). […]

NS(=O)(=O)NC[C@H]1COc2cc(Cl)ccc2O1 [Compound #8, (2S)-(−)-N-(6-Chloro-2,3-dihydro-benzo[1,4]dioxin-2-ylmethyl)-sulfamide]
Dominance Level (DL) values vs vehicle control (submissive rats; 2.5 mg/kg p.o.): did not significantly differ from control
consistent loss of significance between dominant and submissive rats feeder time (submissive rats; 2.5 mg/kg p.o.): no consistent loss of significance
Dominance Level (DL) values vs vehicle control (submissive rats; 12.0 mg/kg p.o.): significantly different from vehicle treated controls after the second, fourth and fifth week of treatment
Dominance Level (DL) values vs vehicle control (submissive rats; 60 mg/kg p.o.): significant difference in DL values relative to vehicle starting at the first week and continuing through the treatment duration of 5 weeks
difference in DL values with fluoxetine treated group (submissive rats; 60.0 mg/kg p.o. vs fluoxetine 10 mg/kg): statistically significant at p<0.001 after first week and p<0.05 after second week of treatment
Dominance Level (DL) values vs vehicle control (submissive rats; 120 mg/kg p.o.): significantly different from the control group after first week, however, this significance dissipated after the second week of treatment
consistent loss of significance between dominant and submissive rats feeder time (submissive rats; 120.0 mg/kg p.o.): no consistent loss of significance
loss of significant difference between dominant and submissive rats (submissive rats; Compound #8 p.o., all doses used (2.5, 12, 60, 120 mg/kg)): lost after the first week of treatment
increased submissiveness during first week of treatment (effect seen with fluoxetine) (submissive rats; Compound #8 treated groups, p.o.): did not show this effect
ED50 (submissive rats; Rattus norvegicus, po, RSBM, calculated): 6.6 ± 0.8 mg/kg
reduction of submissive behavior (submissive rats; p.o. once a day for 5 weeks to submissive rats, 2.5-120 mg/kg): reduce submissive behavior in a dose-dependent manner; also recorded: reduced submissive behavior
Treatment effect on sucrose intake vs vehicle, control animals (Male Wistar rats; controls, 12, 30 or 60 mg/kg once daily i.p. for five weeks): did not cause significant Treatment effects
Treatment effect on sucrose intake vs vehicle, stressed animals (Male Wistar rats; stressed, 12, 30 or 60 mg/kg once daily i.p. for five weeks): did not cause significant Treatment effects
